The target in test [1] is T1, CRACM3 (Homo sapiens, UniProt Q9BRQ5). How it is done: Patch-clamp experiments were performed in the tight-seal whole-cell configuration at 21-25° C. High-resolution current recordings were acquired using the EPC-9 (HEKA). Voltage ramps of 50 ms duration spanning a range of −150 to +150 mV were delivered from a holding potential of 0 mV at a rate of 0.5 Hz over a period of 100-300 sec. All voltages were corrected for a liquid junction potential of 10 mV. Currents were filtered at 2.9 kHz and digitized at 100 μs intervals. Capacitive currents were determined and corrected before each voltage ramp. Extracting the current amplitude at −80 mV from individual ramp current records assessed the low-resolution temporal development of currents. Where applicable, statistical errors of averaged data are given as means± S.E.M. with n determinations. Standard external solutions were as follows (in mM): 120 NaCl, 2 MgCl2, 10 CaCl2, 10 TEA-Cl, 10 HEPES, 10 glucose, pH 7.2 with NaOH, 300 mOsm. In some experiments, Na^+-free solutions were applied, where NaCl was replaced equimolarly by tetraethylammonium-chloride (TEA-Cl). For Ca^2+-free external solutions CaCl2 was omitted, but Mg^2+ was retained. […] In the experiments of FIG. 2, 10 mM EGTA was used and in FIG. 3, [Ca^2+]i was buffered to defined levels using 20 mM Cs-BAPTA and appropriate concentrations of CaCl2 as calculated with WebMaxC. […]

For the next test, the target named is CRACM2 (Homo sapiens, UniProt Q96SN7). Particulars: 50 μM 2-APB. How it is done: (§1) To assess the functional properties of CRACM proteins, all three CRACM species were overexpressed in HEK293 cells. CRAC currents were measured in response to rapid Ca2+ store depletion by 20 μM inositol 1,4,5-trisphosphate (IP3) as well as following passive store depletion by perfusing cells with 20 mM BAPTA, which results in a slower store depletion that relies on Ca2+ leaking from stores. Full length human CRACM1 (accession no. NM_032790) and CRACM1-E106Q were subcloned as described. […] CRACM proteins were over-expressed in HEK293 cells stably expressing STIM1 using lipofectamine 2000 (Invitrogen) and the GFP expressing cells were selected by fluorescence.
CRACM2, sequence (Q96SN7 whole entry): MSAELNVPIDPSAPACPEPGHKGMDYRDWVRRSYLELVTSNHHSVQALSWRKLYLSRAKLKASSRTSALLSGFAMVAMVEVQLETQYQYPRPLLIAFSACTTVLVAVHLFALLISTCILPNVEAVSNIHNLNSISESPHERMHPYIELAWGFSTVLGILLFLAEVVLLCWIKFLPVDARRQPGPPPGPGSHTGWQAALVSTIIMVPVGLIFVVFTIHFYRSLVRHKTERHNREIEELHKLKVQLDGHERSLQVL
(§2) Patch-clamp experiments were performed in the tight-seal whole-cell configuration at 21-25° C. […] Capacitive currents were determined and corrected before each voltage ramp. Extracting the current amplitude at −80 mV from individual ramp current records assessed the low-resolution temporal development of currents. […] In the experiments of FIG. 2, 10 mM EGTA was used and in FIG. 3, [Ca^2+]i was buffered to defined levels using 20 mM Cs-BAPTA and appropriate concentrations of CaCl2 as calculated with WebMaxC. […]

The target in another test is CRACM1 (Homo sapiens, UniProt Q96D31). Particulars: without STIM1 overexpression. Here is the method: as §1, §2
CRACM1, sequence (Q96D31 whole entry): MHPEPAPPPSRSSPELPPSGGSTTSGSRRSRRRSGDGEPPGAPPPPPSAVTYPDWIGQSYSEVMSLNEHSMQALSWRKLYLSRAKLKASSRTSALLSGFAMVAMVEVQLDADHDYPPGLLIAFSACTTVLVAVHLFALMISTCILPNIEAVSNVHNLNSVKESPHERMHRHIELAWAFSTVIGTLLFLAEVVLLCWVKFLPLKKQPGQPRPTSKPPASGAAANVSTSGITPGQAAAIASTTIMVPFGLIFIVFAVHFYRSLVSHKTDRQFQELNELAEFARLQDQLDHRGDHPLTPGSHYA
Test [2] deals with T1, CRACM3. How it is done: as §1, with “described. Full length human CRACM2 (accession no. NM_032831) and CRACM3 (accession no. NM_152288) were amplified from cDNAs (purchased from Origene) using high fidelity Pfu Ultra High Fidelity polymerase (Stratagene) and subcloned into pCAGGS-IRES-GFP vector.” for “described.”
(§3) Patch-clamp experiments were performed in the tight-seal whole-cell configuration at 21-25° C. High-resolution current recordings were acquired using the EPC-9 (HEKA). Voltage ramps of 50 ms duration spanning a range of −150 to +150 mV were delivered from a holding potential of 0 mV at a rate of 0.5 Hz over a period of 100-300 sec. All voltages were corrected for a liquid junction potential of 10 mV. Currents were filtered at 2.9 kHz and digitized at 100 μs intervals. Capacitive currents were determined and corrected before each voltage ramp. Extracting the current amplitude at −80 mV from individual ramp current records assessed the low-resolution temporal development of currents. Where applicable, statistical errors of averaged data are given as means± S.E.M. with n determinations. Standard external solutions were as follows (in mM): 120 NaCl, 2 MgCl2, 10 CaCl2, 10 TEA-Cl, 10 HEPES, 10 glucose, pH 7.2 with NaOH, 300 mOsm. In some experiments, Na^+-free solutions were applied, where NaCl was replaced equimolarly by tetraethylammonium-chloride (TEA-Cl). For Ca^2+-free external solutions CaCl2 was omitted, but Mg^2+ was retained. The divalent-free external solution (DVF) was based on the standard external solution but in the absence of CaCl2 and MgCl2 and additionally supplemented with 10 mM EDTA. Divalent replacement solutions were based on the standard external solution but with 10 mM CaCl2 replaced by 10 mM BaCl2. […] Standard internal solutions were as follows (in mM): 120 Cs-glutamate, 20 Cs-BAPTA, 3 MgCl2, 10 HEPES, 0.02 IP3, pH 7.2 with CsOH, 300 mOsm. In the experiments of FIG. 2, 10 mM EGTA was used and in FIG. 3, [Ca^2+]i was buffered to defined levels using 20 mM Cs-BAPTA and appropriate concentrations of CaCl2 as calculated with WebMaxC. For passive-depletion experiments, IP3 was omitted from the internal solution. All chemicals were purchased from Sigma-Aldrich Co.
Normally, CRAC currents are highly Ca^2+-selective and poorly permeable to K^+ or Cs^+, resulting in positive reversal potentials.
The monovalent versus divalent cation permeation was investigated in ion substitution experiments, where either Ca^2+ was removed from the extracellular solution or Na^+ was replaced by TEA.
The source holds these as a separate data set.

The target in a further test is CRACM1-E190A (Homo sapiens, UniProt Q96D31, E190A). How it is done:
as §3

The target in the next test is CRACM1-E106D (Homo sapiens, UniProt Q96D31, E106D). How it is done: as §3
CRACM1-E106D, sequence (Q96D31 whole entry E106D): as the sequence (Q96D31 whole entry) above, with E106D counted along it
The mark [3] stands for this setting: 50 μM 2-APB, 0 Ca Sodium Ringer.

CRACM1-E190A, sequence (Q96D31 whole entry E190A): as the sequence (Q96D31 whole entry) above, with E190A counted along it

For `NCCOB(c1ccccc1)c1ccccc1` [2-APB, 2-aminoethoxydiphenyl borate], the “Current with 2-APB administered intracellularly” value at CRACM3 [1] (50 μM 2-APB in pipette solution, [Ca2+]i ~150 nM) is “no store-operated or 2-APB induced current was elicited”. Also, the “Reversal potential of the 2-APB-evoked CRACM3 current” value at CRACM3 [1] (50 μM 2-APB, CRACM3 alone, FIG. 6D) is “+30 mV”. Besides, the “Sensitivity of CRACM2 to 2-APB-mediated inhibition (versus CRACM1)” value at CRACM2 is recorded as “significantly less sensitive”. The “Store- and STIM1-independent gating of wild-type CRACM1 by 2-APB” value on CRACM1 was “largely resistant”. At CRACM3 [2] (setting [3]), the “Change of outward current on 2-APB application in Ca2+-free extracellular solution” value is given as “nearly tripled” and the “Reduction of average inward current on 2-APB application in Ca2+-free extracellular solution versus Ca2+-containing solutions” value came to 53%. For the same molecule, the “Reversal potential with 2-APB in Ca2+-free extracellular solution” value at CRACM3 [2] (50 μM 2-APB, 0 Ca Sodium Ringer, shift from +94 mV) is on record as “+10 mV”. Besides, the “Effect of replacing extracellular Na+ with TEA+ on inward or outward currents induced by 2-APB” value at CRACM3 [2] (50 μM 2-APB, 10 mM Ca TEA Ringer) is “no significant effect”. Further, the “Reversal potential after 2-APB application, internal K+” value on CRACM3 [2] (50 μM 2-APB, IP3, K+-based internal solution) amounted to 29 mV. Moreover, the “Average 2-APB-mediated current compared to CRACM3 currents without STIM1 overexpression” value on CRACM3 [2] (50 μM 2-APB, STIM1 cells with CRACM3) is reported as “approximately twice as large”. In addition, on CRACM3 [2] (50 μM 2-APB, red I/V of FIG. 6G), the “Reversal potential with 2-APB in 10Ca/TEA Ringer” value was “+30 mV”. Moreover, the “Permeability ratio PCs/PCs in presence of 2-APB” value at CRACM3 [2] (Goldman-Hodgkin-Katz analysis, 10Ca/TEA Ringer (red I/V), +30 mV) is recorded as 50. The “Permeability ratio PNs/PCs in presence of 2-APB” value at CRACM3 [2] (Goldman-Hodgkin-Katz analysis, Ca2+-free conditions, Erev=+10 mV) stood at 1.5. Also, the “Permeability ratio PCa/PNa in presence of 2-APB” value on CRACM3 [2] (Goldman-Hodgkin-Katz analysis, normally in excess of 100-fold) is reported as 33. In addition, the “Response of CRACM1-E190A co-expressed with STIM1 to 2-APB” value at CRACM1-E190A (50 μM 2-APB after IP3-induced CRAC currents fully activated) is listed as “large facilitation followed by rapid inhibition”. Moreover, the “Response of CRACM1-E190A expressed alone, without STIM1, to 2-APB” value at CRACM1-E190A (50 μM 2-APB, wild-type HEK293, no IP3, [Ca2+]i ~150 nM) was “large, transient increase in both inward and outward current”. In addition, at CRACM1-E190A (CRACM1-E190A with STIM1, 50 μM 2-APB, +55 mV before 2-APB), the “Reversal potential of the 2-APB-facilitated current” value was “+33 mV”. The “Response of CRACM1-E106D expressed alone to 2-APB” value at CRACM1-E106D (50 μM 2-APB, [Ca2+]i 150 nM, no STIM1) is “rapid increase in inward current, followed by complete block, and a slow reactivation”. Further, the “Reversal potential of the reactivated current after 2-APB” value at CRACM1-E106D (CRACM1-E106D alone, +16 mV for the mutant without 2-APB) was 0 mV.

For the origin of these results see patent publication US8828674B2, “Functional identification of proteins underlying Icrac activity in a cell” (The Queen's Medical Center, priority 2007, dated 2014).
